From the supplement of paper PMC4954754
“And” between values parts separate entries of the source, which are not always exact repeats. Equal entries are not always repeated. ± gives the uncertainty stated by the source.

Assays:
Conditions in all cases: 18 h
HEK293T-Rex ERSE-FLuc [1] = experiment: EC50 for ERSE-FLuc reporter activation
Experimental: (§1)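 Dose-response of hit compounds in HEK293T-Rex cells stably expressing ERSE-FLuc or XBP1-RLuc reporters, 18 hr treatment, 1536-well; luminescence normalised to 500 nM thapsigargin (100%) and DMSO (0%), fitted to give EC50 (M) and maximal activation; '>' marks EC50 above the top tested dose (~17 µM).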

HEK293T-Rex XBP1-RLuc [2] = experiment: EC50 for XBP1-RLuc reporter activation
Experimental: as §1

HEK293T-Rex ERSE-FLuc [3] = experiment: maximal ERSE-FLuc activation from dose-response fit, relative to thapsigargin (% of thapsigargin); higher = stronger activation
Experimental: as §1

HEK293T-Rex XBP1-RLuc [4] = experiment: maximal XBP1-RLuc activation from dose-response fit, relative to thapsigargin (% of thapsigargin); higher = stronger activation
Experimental: as §1

| Compound | EC50 for ERSE-FLuc reporter activation (HEK293T-Rex ERSE-FLuc [1]) | EC50 for XBP1-RLuc reporter activation (HEK293T-Rex XBP1-RLuc [2]) [µM] | maximal ERSE-FLuc activation (HEK293T-Rex ERSE-FLuc [3]) | maximal XBP1-RLuc activation (HEK293T-Rex XBP1-RLuc [4]) |
| --- | --- | --- | --- | --- |
| CC(=Nc1ccc(O)cc1)c1sc2ccccc2c1O | > 19.6 µM | > 19.6 | 19.8 ± 4.8 | 31.2 ± 4.8 |
| COc1ccc(-c2cnnc(N/N=C/c3ccc(O)c(O)c3)n2)cc1 | 14.7 µM | 16.8 | 54.5 ± 13 | 50.5 ± 3.9 |
| N#Cc1c(NC(=O)c2ccc3c(c2)OCO3)sc2c1CCCC2 | > 16.9 µM | > 16.9 | 18.3 ± 3.2 | 1.79 ± 3.7 |
| Cc1ccc(C(=O)Nc2sc3c(c2C#N)CCC3)cc1 | > 16.7 µM | > 16.7 | 17.6 ± 5 | 2.39 ± 0.61 |
| Cc1ccc(/C=C(\C#N)C(=O)Nc2cccc(Cl)c2)o1 | > 16.9 µM | > 16.9 | 14.7 ± 3.1 | 3.54 ± 1.9 |
| CCOc1cccc(C(=O)Nc2ccc(-c3nc4ccc(C(=O)c5ccccc5)cc4[nH]3)cc2)c1 | > 11.5 µM | 2.33 | 25.2 ± 5 | 66.4 ± 12 |
| Cc1ccc(O)c(NC(=O)c2cc(-c3cccnc3)on2)c1 | 10.8 µM | > 16.9 | 94.4 ± 10 | 27.9 ± 4.9 |
| CCCNC(=O)c1cc(-c2cccs2)on1 | 7.59 µM | > 16.9 | 92.7 ± 11 | 9.95 ± 1.4 |
| Oc1cccc(Nc2nc(-c3ccc(O)c(O)c3)cs2)c1 | 12.5 µM | 16.5 | 83.3 ± 11 | 51.6 ± 3.2 |
| COc1ccc(/C=C(\C#N)c2nc(-c3ccco3)cs2)cc1O | > 16.7 µM | > 16.7 | 32.9 ± 2.9 | 14.5 ± 4.2 |
| CCOc1cccc(/C=C2\NC(=S)N(C)C2=O)c1O | > 16.9 µM | > 16.9 | 6.21 ± 2 | 0.0882 ± 1.7 |
| O=c1cc(-c2ccc(O)c(O)c2)oc2cc(O)cc(O)c12 | 14.1 µM and 7.57 µM | > 16.9 | 80.9 and 67.8 | 36.6 and 29 |
| O=C(NCCCn1ccnc1)c1cc(-c2cccs2)on1 | 9.58 µM | > 16.9 | 89.1 ± 3.8 | 12.1 ± 0.83 |
| C(=C\c1ccccc1)/C=N/Nc1nc2ccccc2[nH]1 | > 18 µM | > 18 | 25.5 ± 3.7 | 22.2 ± 2 |
| Cc1ccc2nc(NC(=O)c3cccc4ccccc34)sc2c1 | > 15.1 µM | > 15.1 | 38.8 ± 5.3 | 11.2 ± 1.2 |
| CCN(CC)c1ccc(NC(=O)c2cccc(OC)c2)cc1 | > 17.8 µM | > 17.8 | 29.7 ± 5.3 | 2.18 ± 7.1 |
| O=[N+]([O-])c1ccccc1NC(=S)N/N=C/c1ccc(O)c(O)c1 | > 18.3 µM | > 18.3 | 21.3 ± 3.4 | 28.2 ± 2.5 |
| Cc1cc(C)nc(/N=C(\N)Nc2ccc(OCCC(C)C)cc2)n1 | > 15.5 µM | > 5.17 | 45.3 ± 7.7 | 89.1 ± 9.1 |
| COc1ccccc1OCC(=O)Nc1cc(C)ccc1O | > 16.9 µM | > 16.9 | 45.8 ± 4.2 | 22.9 ± 1.1 |
| COc1ccc(/C=C(\C#N)c2nc3ccccc3n2C)cc1 | > 16.9 µM | > 16.9 | 32.1 ± 2 | 0.49 ± 1.4 |
| COc1ccc(/C=C/c2ccc3cccc(OC(C)=O)c3n2)cc1OC(C)=O | > 16.9 µM | > 16.9 | 25.7 ± 5.6 | 15 ± 2.1 |
| O=C(COC(=O)c1cc(O)c(O)c(O)c1)Nc1ccc(Br)cc1F | > 16.9 µM | > 16.9 | 41.7 ± 3.5 | 26.4 ± 2.7 |
